Reference: patent publication US9549988B2, “Pharmaceutical compounds targeted by MIF affinity-tethered moieties” (RJS Biologics LLC, priority 2013, dated 2017)
Like-named read-outs stand apart in the source and are kept apart here.

Legend:
[1] = test system: Normal Human Adult Dermal Fibroblasts (ATCC PCS-201-012); assay: WST-8 cellular proliferation assay, primary dermal fibroblasts; format: cell-based; details: for IC50: read-out: IC50 1° Fibroblasts, Table 4, EGFRi derivatives
Description: (§1) Assays were performed according to the manufactures instructions.

[2] = test system: large cell lung cancer cell lines (NCI-H460); assay: WST-8 cellular proliferation assay, NCI-H460 lung cancer cells; format: cell-based; details: for IC50: Table 4, EGFRi derivatives, WST-8, read-out: IC50 Cancer Cells ATCC NCI-H460; for Selectivity: Table 4, 1° fibroblasts versus NCI-H460 cancer cells
THP-1 leukemia cells = assay: Flow cytometry uptake by THP-1 cells in presence of ISO-1; format: cell-based, human; details: FIG. 22, 2 hrs at 37° C.
Description: This example illustrates an in vitro experiment using predictive models of cancer to show the cellular specificity and potential therapeutic utility of the inventive compounds. The human leukemic cell line THP-1 was grown AIM-V serum free medium Gibco Life Sciences (Grand Island, N.Y.). […] Then the washed THP-1 cells were added to the drug dilutions to start the experiment ˜75,000 cells per well. Test compounds were incubated 2 hrs at 37° C., then the plate was read by flow cytometry BD Canto 2 (80 μl˜25,000 cells). A population of Single Round “average” cells was selected by FSC and SSC—constituting %70 of the total cell population examined. The amount of doxorubicin uptake was evaluated for this population in the PE channel.

[3] = test system: large cell immunoblastic lymphoma cell lines (ATCC SR); assay: WST-8 cellular proliferation assay, ATCC SR lymphoma cells; format: cell-based; details: Table 2; 1° fibroblasts versus ATCC SR cancer cells
Description: as §1

[4] = test system: THP-1 leukemia cells mixed with non-cancerous PBMC cells; assay: Flow cytometry drug uptake in mixed THP-1 / PBMC population; format: cell-based, human; details: FIG. 21; THP-1 added to PBMC; 0.8 μM; 2-2.5 h; PE channel
Description: This example illustrates an in vitro experiment using predictive models of cancer to show the cellular specificity and potential therapeutic utility of the inventive compounds. The human leukemic cell line THP-1 was grown in RPMI 1640 medium with penicillin, streptomycin, and containing 25 mM Hepes, 0.05 mM 2-mercaptoethanol, 10% fetal bovine serum and 2 mM L-glutamine. Cells washed 2× with Gibco Life Sciences (Grand Island, N.Y.) AIM-V serum free medium and then were inoculated into 96 well microtiter plates in 100 μL at plating densities ranging from 25,000 to 100,000 cells/well. Five to ten million frozen peripheral blood mononuclear cells (PBMCs) (Astarte Biologics, LLC. (Redmond, Wash.)) in a solution of 10% DMSO, 2% human serum albumin in phosphate buffered saline were thawed and immediately washed in AIM-V media. An approximately equal number of these cells (25,000 to 100,000 cells/well) were added to the experimental plate. Doxorubicin was added to a final concentration of 0.8 μM. The microtiter plates were incubated at 37° C., 5% CO2, 95% air and 100% relative humidity for 2-2.5 h then drug uptake was quantified by flow cytometry for example using a BD FACSCanto II (San Jose, Calif.). Doxorubicin uptake was evaluated in the PE channel. Individual cell populations were identified by size, shape and through the use of dye labeled antibodies.

[5] = test system: Human tumor cell lines of a cancer screening panel; assay: Sulforhodamine B (SRB) cellular proliferation assay, cancer screening panel; format: cell-based; details: 10 μM
Description: This example illustrates several in vitro experiments in predictive models of cancer to show the potential therapeutic utility of the disclosed compounds. Human tumor cell lines of a cancer screening panel were grown in RPMI 1640 medium containing 5% fetal bovine serum and 2 mM L-glutamine. Cells were inoculated into 96 well microtiter plates in 100 μL at plating densities ranging from 5,000 to 40,000 cells/well depending on the doubling time of individual cell lines. After cell inoculation, the microtiter plates were incubated at 37° C., 5% CO2, 95% air and 100% relative humidity for 24 h prior to addition of experimental drugs.
After 24 h, two plates of each cell line were fixed in situ with trichloroacetic acid (TCA), to represent a measurement of the cell population for each cell line at the time of drug addition (T=zero). Experimental drugs were solubilized in dimethyl sulfoxide at 400-fold the desired final maximum test concentration and stored frozen prior to use. […]
Following drug addition, the plates were incubated for an additional 48 h at 37° C., 5% CO2, 95% air, and 100% relative humidity. […] Bound stain was subsequently solubilized with 10 mM trizma base, and the absorbance was read on an automated plate reader at a wavelength of 515 nm. […] Using the seven absorbance measurements [time zero, (T=zero), control growth, (C), and test growth in the presence of drug at the five concentration levels (Ti)], the percentage growth was calculated at each of the drug concentrations levels.
Percentage growth inhibition was calculated as: [(Ti−Tzero)/(C−Tzero)]×100 for concentrations for which Ti>/=Tzero [(Ti−Tzero)/Tzero]×100 for concentrations for which Ti<Tzero. Three dose response parameters were calculated for each experimental agent. […] The drug concentration resulting in total growth inhibition (TGI) was calculated from Ti=Tzero. […] The same procedures were used to create FIGS. 19 and 20 except a single 10 μM data point was recorded for each cell line.

[6] = FIG. 20, 14 diverse cancer cell lines

Row | Structure (SMILES) | Selectivity [2] | IC50 ([1]; Homo sapiens, Fibroblast) [µM] | IC50 ([2]; Homo sapiens, NCI-H460) [µM] | inhibition of cancer cell growth (average % inhibition) [5, 6] | further results
1 | COc1cc2ncnc(Nc3ccc(F)c(Cl)c3)c2cc1NC(=O)/C=C/CN1CCCCC1 [Docomitinib (PF-00299804), Docomitinib] | 0.08 |  |  |  | IC50 [1]: 0.89 µM; IC50 [2]: 10.6 µM
2 | COc1cccc2c1C(=O)c1c(O)c3c(c(O)c1C2=O)C[C@@](O)(C(=O)CO)C[C@@H]3O[C@H]1C[C@H](N)[C@H](O)[C@H](C)O1 [Doxorubicin] |  |  |  |  | inhibition of cellular uptake by ISO-1 (THP-1 leukemia cells): not inhibited; IC50 1° Fibroblasts ([1]; Table 2, Doxorubicin derivatives): 0.185 ± 0.5 µM; Selectivity [3]: 26; preferential cellular uptake by cancer cells over non-cancerous cells [4]: little preference for the cancer cell line
3 | COc1cc2c(Nc3ccc(F)c(Cl)c3)ncnc2cc1OCCOCCNC(=O)COc1ccc(Cn2c(=O)oc3ccc(C)cc32)cc1O [RJS012_1] | 1.9 | 6.7 | 3.6 |  | 
4 | C#Cc1cccc(Nc2ncnc3cc(OCCOC)c(OCCOC)cc23)c1 [Tarceva ® (Erlotinib), Erlotinib] | 0.37 | 4.7 | 12.6 |  | 
5 | Cc1ccc2oc(=O)n(Cc3ccc(OCC(=O)O)c(O)c3)c2c1 [compound 7, (2-hydroxy-4-[(5-methyl-2-oxo-1,3-benzoxazol-3(2H)-yl)methyl]phenoxy)acetic acid] |  |  |  | little potency | inhibition of cancer cell growth (average % inhibition) ([5]; FIG. 19, 17 cancer cell lines): little if any potency
6 | Cc1ccc2oc(=O)n(Cc3ccc(OCC(=O)NCCC[C@@H]4O[C@@H]5O[C@@]6(C)CC[C@H]7[C@H](C)CC[C@@H]([C@H]4C)[C@@]57OO6)c(O)c3)c2c1 [compound 11, 2-(2-hydroxy-4-((5-methyl-2-oxobenzo[d]oxazol-3(2H)-yl)methyl)phenoxy)-N-(3-((3R,5aS,6R,8aS,9R,10S,12R,12aR)-3,6,9-trimethyldecahydro-12H-3,12-epoxy[1,2]dioxepino[4,3-i]isochromen-10-yl)propyl)acetamide] |  |  |  | substantial anti-cancer activity | 
